# Test results taken from US12478671B2, “Sterols as novel immunomodulatory agents and their use as vaccine adjuvants” (Ohio State Innovation Foundation, priority 2017, dated 2025).
# Assays:
# [1] = tested on: RAW macrophages (RAW 264.7); assay: Macrophage gene expression by RT-PCR; format: cell-based
# Protocol: (§1) Macrophage Activation. RAW macrophages (RAW 264.7 (ATCC TIB-71), ATCC, Manassas, VA, USA) were plated at a concentration of 0.5×10^6 cells per well in 24-well plates, and treated with PEN (25 μM or 50 μM) or DMSO (vehicle control) for 24, 48 and 72 h. At the indicated times, cells were harvested for detection of MHC-II, CD40, CD80, CD86 surface expression by flow cytometry. RNA was also extracted from cells to determine gene expression of Tnfα, Il1b, Il6, IL10, Il15, Il18, Nos2, Arg1, and Chil3 by RT-PCR.
# Real Time PCR. Total RNA was extracted from RAW macrophages using TRIzol reagent (Life Technologies). RNA was reverse-transcribed to cDNAs using an iScript reverse transcriptase kit (Bio-Rad, Hercules, CA, USA). Real-time PCR reactions using the IQ SYBR Green mix reagent were performed in a CFX96 RT-PCR cycler (Bio-Rad). Primer sequences for Tnfa, Illb, 116, IL10, 1115, 1118, Nos2, Argl and Chil3 were selected from the Primer Bank database (pga.mgh.harvard.edu/primerbank). Data were normalized to the reference gene β-actin and presented as fold induction over controls.
# [2] = tested on: RAW macrophages (RAW 264.7); assay: Macrophage activation: surface expression of MHC-II, CD40, CD80, CD86 by flow cytometry; format: cell-based
# Protocol: as §1
# Flow Cytometry. Macrophages treated with PEN or the DMSO control were harvested, washed in PBS, blocked with normal mouse serum, and incubated with fluorochrome conjugated antibodies against the cell surface markers CD40, CD80, CD86 and MHC-II (Biolegend). Cells were acquired on a BD FACS Calibur (BD Biosciences) and analysis was performed using FlowJo software (Tree Star Inc, Ashland, OR, USA).
# [3] = tested on: RAW-Blue NF-kB/AP1 reporter cell line; assay: NF-κB and AP-1 activity assay (SEAP reporter, alkaline phosphatase activity); format: cell-based; conditions: 25 μM, 24 h, compared to vehicle alone (FIG. 1)
# Protocol: NF-κB and AP-1 Activity Assay. NF-kB and AP-1 activity was analyzed using the RAW-Blue NF-kB/AP1 reporter cell line (InvivoGen, San Diego, CA, USA), which contains a secreted embryonic alkaline phosphatase (SEAP) reporter construct, inducible by NF-κB and AP-1. Cells were cultured in RPMI 1640 medium supplemented with 10% FBS (Atlanta Biologicals, Flowery Branch, GA, USA) and 1% penicillin streptomycin (Life Technologies, Carlsbad, CA, USA), and stimulated with 25 μM PEN or DMSO (vehicle control) for 24 h. Culture supernatants were then collected and alkaline phosphatase activity was determined by incubating with the detection medium QUANTI-Blue (InvivoGen), and measuring at 655 nm using a SpectraMax spectrophotometer (Molecular Devices LLC, Sunnyvale CA, USA) and analyzed using Softmax Pro software (Molecular Devices LLC).
# [4] = tested on: Bone marrow-derived dendritic cells (BMDCs); assay: Cytokine production (ELISA) by bone marrow-derived dendritic cells; format: cell-based, C57BL/6 mice
# Protocol: Isolation of Mouse Bone Marrow-derived Dendritic Cells. Bone marrow-derived dendritic cells (BMDCs) were prepared by harvesting bone marrow cells from the femurs and tibias of C57BL/6 mice. Red blood cell lysis was performed in ACK lysis buffer, and subsequent cells were plated in RPMI medium supplemented with 10% FBS, 1% penicillin-streptomycin (Life Technologies) and 20 ng/mL GM-CSF (Peprotech, Rocky Hill, NJ, USA) at 5 million cells/dish for 6 to 8 days. Cells were harvested then stimulated with PEN (25 μM or 50 μM) or DMSO for 24 h, and culture supernatants were collected for detection of IL-12 and IL-10 cytokines by ELISA.
# (§2) Cytokine ELISA. Purified anti-mouse antibodies against IFN-γ, IL-4, IL-10, IL-12 (Biolegend, San Diego, CA, USA) and IL-13 (eBiosciences, San Diego, CA, USA) were used to coat plates. Recombinant mouse IFN-γ, IL-4, IL-10, IL-12 and IL-13 (BD Biosciences, San Jose, CA, USA) were used as standards. Biotinylated anti-mouse antibodies for IFN-γ, IL-4, IL-10, IL-12 and IL-13 (Biolegend, San Diego, CA) were used as detection antibodies. AKP-streptavidin (BD Biosciences) and p-nitrophenylphosphate (PNPP, Thermo Fisher Scientific, Waltham, MA, USA) were used for detection. Absorbance was measured at 405 nm using a Spectramax microplate reader and data were analyzed by Softmax Pro software (Molecular Devices LLC, Sunnyvale, CA).
# OVA-immunized mice [5] = assay: Mouse immunization study: cytokines of spleen and lymph node cells after ex vivo OVA re-stimulation; format: in vivo, BALB/c mice
# Protocol: (§3) Mouse Immunization Studies. Six- to seven-week-old female BALB/c mice were purchased from Harlan Laboratories (Indianapolis, IN, USA). Mice were randomized into three groups, and immunized subcutaneously with 100 μg OVA (endotoxin free; BioVendor, Ashville, NC, USA) plus vehicle (Group 1), 100 μg OVA plus 10 μg PEN (Group 2), or 100 μg OVA plus 100 μg PEN (group 3, […]). Each group received respective boosting doses of treatment at weeks 2 and 4. Serum was collected from each mouse at every two weeks after initial immunization for detection of IgG1 and IgG2A antibodies by ELISA. Mice were euthanized at week 10 and spleens and lymph nodes were harvested for detection of cytokines IFN-γ, IL-4, IL-10 and IL-13 by ELISA after re-stimulation with 1 mg/mL OVA antigen for 72 h.
# as §2
# OVA-immunized mice [6] = assay: Mouse immunization study: serum IgG1 and IgG2a antibody ELISA; format: in vivo, BALB/c mice; conditions: 10 μg and 100 μg with 100 μg OVA s.c., compared to vehicle controls (FIG. 6)
# Protocol: as §3
# Antibody ELISA. Mice were bled at weeks 2, 4, 6, 8 and 10 after immunization and serum was collected from the blood samples. IgG1 and IgG2a antibody titers were determined by ELISA using HRP-conjugated antibodies (Biolegend) and TMB substrate (KPL, Inc., Gaithersburg, MD, USA). Absorbance was measured at 450 nm by Spectramax microplate reader and data were analyzed by Softmax Pro software (Molecular Devices LLC).
# [7] = tested on: OT-II T cells co-cultured with BMDCs; assay: T cell co-culture with OVA-peptide-loaded BMDCs (CFSE proliferation, IFN-γ ELISA); format: cell-based, OT-II transgenic mice
# Protocol: T Cell Co-culture Experiments 5×10^4 BMDCs were pulsed with 10 μg/mL OVA323-339 peptide (Anaspec, Fremont, CA, USA) for 2 h, then incubated with PEN (25 μM or 50 μM) or DMSO (vehicle control) for 24 h. CFSE labeled T cells isolated from spleens of OT-II transgenic mice were added to the wells at a 1:4 (BMDC:T cell) ratio and incubated for 72 h. Antigen-specific T cell proliferation was analyzed by flow cytometry of CFSE stained cells. Cell co-culture supernatants were collected for analysis of IFN-γ cytokine production by ELISA.
# as §2
# [8] = both concentrations (25 μM, 50 μM), 72 h
smiles,measurement,setting,value
"C=C(CCC=C(C)C)[C@H]1CC[C@H]2[C@@H]3CCC4=CC(=O)CC[C@]4(C)[C@H]3CC[C@]12C [PEN, pentalinonsterol]",transcript levels of Arg1,[1],increased
same,IL-15 gene transcripts,"[1]; 25 μM, after 24 h (FIG. 3E)",increased
same,IL-18 gene transcripts,"[1]; 25 μM, after 24 h (FIG. 3F)",increased
same,Il1b gene expression,"[1]; 24 and 48 h, not statistically significant (FIG. 3B)",increased trend
same,mRNA levels of Tnfα,[1]; 48 h (FIG. 3A),increases
same,mRNA levels of Il6,[1]; 48 h (FIG. 3C),increases
same,gene transcript levels of Nos2,[1]; after 48 h (FIG. 3D),significantly increased
same,transcript levels of Chil3,[1]; at 24 h and 48 h,significantly reduced
same,transcript levels of IL-10,[1]; at 48 h,significantly reduced
same,expression of CD40,"[2]; 25 μM and 50 μM, after 72 h (FIGS. 2A, 2E)",significantly enhanced
same,expression of MHC-II,"[2]; 25 μM and 50 μM, at 48 h and 72 h (FIGS. 2B, 2F)",significantly enhanced
same,expression of CD80,"[2]; 50 μM, 48 h",increased
same,expression of CD86,"[2]; 50 μM, 48 h",increased
same,expression of CD80,[2]; [8],increased
same,expression of CD86,[2]; [8],increased
same,alkaline phosphatase activity (NF-κB/AP-1 SEAP reporter),[3],significantly increased
same,IL-10 production,"[4]; 50 μM, 24 h (FIG. 4B)",slight increase
same,production of IL-12,[4]; 24 h (FIG. 4A),significantly induces
same,levels of IL-4,"OVA-immunized mice [5]; culture supernatants of lymph node and splenic cells (FIGS. 7B, 7F)",increased
same,levels of IL-13,"OVA-immunized mice [5]; culture supernatants of lymph node and splenic cells (FIGS. 7D, 7H)",increased
same,levels of IL-10,"OVA-immunized mice [5]; culture supernatants of lymph nodes and spleens, PEN vs vehicle control (FIGS. 7C, 7G)",generally comparable
same,levels of IFN-γ,"OVA-immunized mice [5]; lymph node cells and splenocytes, OVA re-stimulation (FIGS. 7A, 7E)",significantly increased
same,IgG1 antibody titers,OVA-immunized mice [6],significantly increased
same,IgG2a antibody titers,OVA-immunized mice [6],significantly increased
same,T cell proliferation,"[7]; 72 h co-culture, PEN-treated vs DMSO-treated BMDCs (FIG. 4C)",higher
same,production of IFN-γ by T cells,"[7]; 72 h co-culture, PEN-treated vs DMSO-treated BMDCs (FIG. 4D)",significantly increased
same,"T cell responses (proliferation and IFN-γ), 50 μM compared to 25 μM",[7]; BMDCs treated with 50 μM vs 25 μM,greater
